Measurements published in patent publication US6537977B1, “Anti-inflammatory agent” (Seikagaku Corporation, priority 1995, dated 2003).

Key:
MRL (1 pr/1 pr) mice [1] = details: single administration of 10 mg/kg endoxan
Method: (§2) Ten weeks old male MRL (1 pr/1 pr) mice was used as experimental animals and DS prepared according to reference example 1 was used as an agent by dissolving it in sterile physiological saline solution on use.
(§3) Sterile physiological saline solution was administered in negative control group (non-treated group).
DS was daily, 5 times per week (neither on Saturday or on Sunday), administered into tail vein in mice using 1 ml disposable syringe at the dose level of 25 mg/kg/day. […] During administration, animals were daily observed carefully. After 8 weeks, blood samples were taken under anesthesia with Nembutal and animals were killed by exsanguination. Then, serum creatinine level, spleen weight and the weight of mesenteric lymph node were measured.
Treatment for enlarged spleen in MRL mice was tried. […] The dose of DS was 25 mg/kg in any case.

MRL (1 pr/1 pr) mice [2] = details: single administration of 20 mg/kg endoxan i.p. once a week, 8 weeks
Method: as §2, §3
At the age of 10 weeks old, body weight of animals were weighed and blood samples were taken for determination of serum BUN (urea nitrogen) and serum creatinine. […] DS was daily, 5 times per week (neither on Saturday or on Sunday), administered into tail vein in mice using 1 ml disposable syringe at the dose level of 25 mg/kg/day. […] During administration, animals were daily observed carefully. After 8 weeks, blood samples were taken under anesthesia with Nembutal and animals were killed by exsanguination. Then, serum creatinine level, spleen weight and the weight of mesenteric lymph node were measured.

[3] = design: species or system SD male rats; details: rat, in vivo
Method: X represents overlapping ◯ and ●.
Dermatan sulfate derived from crest and dermatan sulfate derived from bovine intestine (see reference example 2 in WO95/09188) were administered into tail vein of SD male rats and changes with the passage of time in the residual level of dermatan sulfate in blood were determined and the residual rate thereof to the initial level of dermatan sulfate on administration was calculated (see example 1 in the above International publication). […] Thus, since dermatan sulfate derived from crest or dermatan sulfate with the equivalent physical properties has a long life span in blood and sustained anti-inflammatory effects, a large dosage thereof is not required for the treatment and dermatan sulfate derived from crest or equivalent thereof is the most preferable.

[4] = test system: MRL (1 pr/1 pr) mice with nephritis; assay: Mice SLE model-1: histopathological observations of kidney (MC and DP glomeruli); format: in vivo; details: 4 weeks
Method: As SLE model, 17 weeks old male MRL (1 pr/1 pr) mice were used, while C57BL/6 mice with the same age and sex were used as normal control. As agents, DS or low molecular weight heparin (LMWHep, Fragmin) prepared according to a method in reference example 1 was dissolved in sterile physiological saline solution on use.
(§1) Blood samples were taken from 17 weeks old mice, only MRL mice with nephritis whose level of blood urea nitrogen (BUN) were high at the nearly same level were selected and divided into 4 groups, each group consisting of 5 mice. Sterile physiological saline solution was administered in one group as non-treated control group, 5 mg/kg of DS, 25 mg/kg of DS and 1 mg/kg of LMWHep were administered into tail vein in another 3 groups, once per day and five times per week. […] Serum and plasma taken were used for determination of BUN, creatinine and fibrinogen and kidneys were used for histopathological examination.

[5] = test system: MRL (1 pr/1 pr) mice with nephritis; assay: Mice SLE model-1: fibrinogen level in blood; format: in vivo
[6] = test system: MRL (1 pr/1 pr) mice with nephritis; assay: Mice SLE model-1: effects on renal function (serum BUN, creatinine); format: in vivo; details: once per day, five times per week, 4 weeks
Method: as §1, with “As agents, DS or low molecular weight heparin ([…], Fragmin) prepared according to a method in reference example 1 was dissolved in sterile physiological saline solution on use. Blood” for “Blood”, “LMWHep” left out, “examination. […] In FIG. 3b, * means that there is a significant difference with p<0.05 from non-treated control group by Bonferroni examination. Both of BUN and creatinine level of non-treated control group were higher than those of normal control group(C57BL/6), which made it clear that renal function thereof was impaired.” for “examination.”

[7] = test system: MRL (1 pr/1 pr) mice with nephritis; assay: Mice SLE model-1: histopathological change of renal artery (angiitis); format: in vivo; details: for angiitis intermediate degree, number of individual / angiitis serious degree, number of individual / angiitis slight degree, number of individual: 5 mice
Cri; CD-1 mice = assay: Toxicity test by single intravenous administration; format: in vivo
Method: Toxicity test by single intravenous administration of dermatan sulfate(1) Experimental method
As experimental animals, five weeks old female and male Cri; CD-1 mice (Japanese Charles-river (n=5 each) were used. The DS solution obtained by the same method as in reference example 1 was made isotonic using sterile distilled water and sterile physiological saline solution and single 2000 mg/kg of DS was administered intravenously into tail vein in mice and clinical observations were carried out for 14 days.

[8] = test system: Lewis rats with experimental allergic encephalomyelitis; assay: Rat experimental allergic encephalomyelitis (EAE), multiple sclerosis model; format: in vivo; details: 5 mg DS i.p. once a day since third day after immunization

O=P1(N(CCCl)CCCl)NCCCO1 (stereo not drawn) [endoxan, Cyclophosphamide]
spleen weight, compared with negative control group (MRL (1 pr/1 pr) mice [1]): did not give any effect | serum creatinine level, compared with negative control group (MRL (1 pr/1 pr) mice [2]): did not exhibit any effect

dermatan sulfate [reference compound]
residual rate of dermatan sulfate in blood [3]: scarcely detected

low molecular weight heparin [LMWHep, reference compound]
ratio of DP glomeruli (number of DP glomeruli/total number of glomeruli) ([4]; 1 mg/kg): such an effect was not recognized | ratio of MC glomeruli (number of MC glomeruli/total number of glomeruli) ([4]; 1 mg/kg): slightly increased | suppression of increase of fibrinogen level in blood ([5]; 1 mg/kg group): did not scarcely recognized | BUN level ([6]; 1 mg/kg tail vein): slightly improved | creatinine level ([6]; 1 mg/kg tail vein): slightly improved | histopathological evaluation of angiitis of renal artery, versus non-treated group ([7]; 1 mg/kg group): not a big difference | angiitis intermediate degree, number of individual ([7]; 1 mg/kg group): 1 | angiitis serious degree, number of individual ([7]; 1 mg/kg group): 4 | angiitis slight degree, number of individual ([7]; 1 mg/kg group): 0

sodium salt of dermatan sulfate [DS]
ratio of DP glomeruli (number of DP glomeruli/total number of glomeruli) ([4]; 5 mg/kg): clearly decreased in a dose-dependent manner | ratio of MC glomeruli (number of MC glomeruli/total number of glomeruli) ([4]; 5 mg/kg): slightly increased | ratio of DP glomeruli (number of DP glomeruli/total number of glomeruli) ([4]; 25 mg/kg): clearly decreased in a dose-dependent manner | ratio of MC glomeruli (number of MC glomeruli/total number of glomeruli) ([4]; 25 mg/kg): significantly increased | residual rate of dermatan sulfate in blood [3]: about 10% | residual rate of dermatan sulfate in blood, compared with dermatan sulfate derived from bovine intestine [3]: twice as much | increase of fibrinogen level in blood ([5]; 5 mg/kg group): suppressed in a dose-dependent manner | increase of fibrinogen level in blood ([5]; 25 mg/kg group): suppressed in a dose-dependent manner | BUN level ([6]; 5 mg/kg tail vein): slightly improved | creatinine level ([6]; 5 mg/kg tail vein): slightly improved | BUN level ([6]; 25 mg/kg tail vein): slightly improved | creatinine level ([6]; 25 mg/kg tail vein, p<0.05 vs non-treated control): significantly improve | death after 14 days observation (Cri; CD-1 mice; single 2000 mg/kg i.v. tail vein, 5 female and 5 male mice): no death | lethal dose (Cri; CD-1 mice; single i.v. tail vein, mice, 14 days observation): more than 2000 mg/kg | histopathological evaluation of angiitis of renal artery, versus non-treated group ([7]; 5 mg/kg group): not a big difference | angiitis intermediate degree, number of individual ([7]; 5 mg/kg group): 2 | angiitis serious degree, number of individual ([7]; 5 mg/kg group): 3 | angiitis slight degree, number of individual ([7]; 5 mg/kg group): 0 | histopathological evaluation of angiitis of renal artery ([7]; 25 mg/kg group): individual with serious degree decreased and individual with intermediate and slight degree increased | angiitis intermediate degree, number of individual ([7]; 25 mg/kg group): 3 | angiitis serious degree, number of individual ([7]; 25 mg/kg group): 1 | angiitis slight degree, number of individual ([7]; 25 mg/kg group): 1 | mean onset day [8]: 9.5±0.5 | accumulated clinical scores ([8]; p<0.05 vs control group): 12.4±1.7
